In one data set the test system is Panc-1 cells. Description: MTT cell viability assay, Panc-1. The class given is cell-based. Particulars: pancreatic cancer cells. The method, then:
(§1) Cell viability assay: The cell viability was determined by the standard MTT assay method. Briefly, Panc-1, HCT-116, A549, PC3, MIAPaca-2, HT-29, MDA-MB-231, MCF7 cells, and fR2cells were seeded in 96 well tissue culture plates (Nunc) at a density of 4×10^3 cells per well and treated with varying concentrations of the test compounds in triplicates. DMSO was taken as a vehicle, and its final concentration was maintained at 0.2% in the culture medium. Doxorubicin was employed as a positive control. After 44 h of incubation, MTT dye solution was added into the medium, and cells were incubated for another 4 h at 37° C. in 5% CO2. The amount of colored formazan derivatives formed was measured by taking optical density (OD) using a microplate reader (TECAN, Infinite M200 Pro) at 570 nm, and the percentage of cell viability was calculated. The IC50 values were calculated using GraphPad Prism software (Version 5.0).
For orientation: Tetrazolium assays rely on reduction of a dye to a coloured formazan, in cell work by metabolically active cells.

The subject of data set [1] is MIAPaCa-2 cells. Description: MTT cell viability assay, MIAPaCa-2. The format is cell-based, human. The conditions noted are these: Homo sapiens, MIA PaCa-2, 48 h, read-out: Cytotoxicity (IC50) MIAPaCa-2, MTT, 48 h. The method, then:
as §1

The test system of another data set is HCT-116 cells. The data set can be described thus: MTT cell viability assay, HCT-116. The conditions noted are these: Homo sapiens, HCT-116, 48 h, read-out: Cytotoxicity (IC50) HCT-116, MTT, 48 h; colorectal adenocarcinoma cells. The format is cell-based. The procedure: as §1
Data set [2] deals with human colorectal adenocarcinoma cell line (HT-29). Description: MTT cell viability assay, HT-29. The format is cell-based. Particulars: Homo sapiens, HT-29, 48 h, read-out: Cytotoxicity (IC50) HT-29, MTT, 48 h; human colorectal adenocarcinoma cell line. The procedure:
as §1

Data set [3] relates to lung adenocarcinoma cells (A549). Description: MTT cell viability assay, A549. The format is cell-based. Particulars: read-out: Cytotoxicity (IC50) A549, MTT, 48 h. The procedure:
as §1

Another data set relates to PC3 cells. The data set can be described thus: MTT cell viability assay, PC3. The class given is cell-based. The conditions noted are these: Homo sapiens, PC-3, 48 h, read-out: Cytotoxicity (IC50) PC3, MTT, 48 h. The procedure:
as §1

The next data set has as its system MCF-7 cells. The data set can be described thus: MTT cell viability assay, MCF-7. The class given is cell-based. Particulars: Homo sapiens, MCF7, 48 h, read-out: Cytotoxicity (IC50) MCF-7, MTT, 48 h; breast cancer cell of epithelial origin. The method, then: as §1
Data set [4] is described as follows: MTT cell viability assay, fR2 normal epithelial cells. Particulars: human, fR2 normal epithelial cells; MTT, 48 h; normal epithelial cell line; read-out: Cytotoxicity (IC50) fR2. The format is cell-based, human. The method, then: as §1
The test system of data set [5] is MIAPaCa-2 cells. The data set can be described thus: Cell scatter assay. The format is cell-based, human. Particulars: MIAPaCa-2, 1, 2, 3 μM, 36 h, compared to vehicle and parent molecule. The procedure: Cell scatter assay MIAPaCa-2 cells were seeded onto a 12 well plate at a seeding density of 500 cells/well and kept for 4-5 days, and there was the formation of scatter colonies since the cell line itself is a metastatic cell line. Accordingly, they were treated with 1 μM, 2 μM & 3 μM of compound 2, 2a, 2b, 3, 3a, 4, 4a & 4b for 36 h, and upon termination, they were washed with PBS and observed under an inverted microscope at 20× magnification (FIG. 3).

Where two headings read alike, the source gives them in different places.

What is called IC50 is the concentration at which inhibition is half-maximal.

Consider `CCCCCc1cc(O[C@@H]2OC(CO)[C@@H](O)C(O)C2O)c2c(c1)OC(C)(C)[C@@H]1CC=C(C)C[C@@H]21` (single isomer, unassigned) [Compound 3a, Δ^8-tetrahydrocannabinol-1-O-β-D-glucopyranoside], for which the 50% inhibitory concentration (IC50) with Panc-1 cells (read-out: Cytotoxicity (IC50) Panc-1, MTT, 48 h) was 3.16 µM; with MIAPaCa-2 cells [1], 0.742 µM; in the data set on HCT-116 cells it was 30.2 µM; in data set [2], 10.7 µM; in data set [3] it was 2.15 µM; in the data set on PC3 cells, 38 µM. Besides, the IC50 with MCF-7 cells amounted to 34.9 µM. Also, the IC50 at 48 h in data set [4] is more than 100 µM. The cell scattering result in the data set on MIAPaCa-2 cells [5] is given as “did not prevent cell scattering”.

Turning to `CCCCCc1cc(O[C@@H]2OC(CO)[C@@H](O)C(O)C2O)c2c(c1)OC(C)(C)c1ccc(C)cc1-2` (stereo partly drawn) [Compound 4a, Cannabinol-1-O-β-D-glucopyranoside], the 50% inhibitory concentration (IC50) in the data set on Panc-1 cells (Homo sapiens, PANC-1, 48 h, read-out: Cytotoxicity (IC50) Panc-1, MTT, 48 h) was 3.16 µM; in the data set on MIAPaCa-2 cells [1] it was 2.58 µM; with HCT-116 cells, 2.98 µM; in data set [2] it was 3.53 µM; in [3] (Homo sapiens, A549, 48 h), 3.01 µM; with PC3 cells, 51.4 µM. The IC50 with MCF-7 cells amounted to 7.74 µM. Moreover, the 50% inhibitory concentration (IC50) at 48 h in data set [4] is more than 100 µM. Besides, in the data set with MIAPaCa-2 cells [5], the cell scattering entry is “typical clumping of scatter cells”.

For the origin of these results see patent publication US20240382509A1, “Cannabinoids C- and O-glycosides possessing anti-proliferative and anti-metastatic properties and process for preparation thereof” (Council of Scientific and Industrial Research, priority 2021, published 2024).
